Data from the supplement of paper PMC10733146.

Key:
Assay in all cases: viability relative to DMSO control (fraction); higher = less drug effect (more viable cells)
[1] = system: primary DLBCL patient cells (S082); settings: 48 h
Method in brief: (§1)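 Primary mononuclear tumour cells (Ficoll-isolated from blood or bone marrow, or processed lymph node; fresh or cryopreserved) were plated at 4 × 10^4 cells per well in 384-well plates with pre-plated compounds at five concentrations, one well each. Medium was RPMI-1640 with penicillin/streptomycin, L-glutamine and human serum, at 37 °C and 5% CO2 for 48 h. Viability was read as CellTiter-Glo luminescence relative to the median of 16 inner DMSO wells.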

[2] = system: primary B-PLL patient cells (S016); settings: 48 h
Method in brief: as §1

[3] = system: primary AML patient cells (S011); settings: 48 h
Method in brief: as §1

[4] = system: primary FL patient cells (S087); settings: 48 h
Method in brief: as §1

[5] = system: primary MCL patient cells (S041); settings: 48 h
Method in brief: as §1

[6] = system: primary DLBCL patient cells (S076); settings: 48 h
Method in brief: as §1

[7] = system: primary T-NHL patient cells (S058); settings: 48 h
Method in brief: as §1

[8] = system: primary T-PLL patient cells (S008); settings: 48 h
Method in brief: as §1

[9] = system: primary AML patient cells (S007); settings: 2 µM; 48 h
Method in brief: as §1

[10] = system: primary AML patient cells (S006); settings: 48 h
Method in brief: as §1

[11] = system: primary AML patient cells (S081); settings: 48 h
Method in brief: as §1

[12] = system: primary ALL patient cells (S088); settings: 48 h
Method in brief: as §1

[13] = system: primary AML patient cells (S055); settings: 48 h
Method in brief: as §1

[14] = system: primary AML patient cells (S009); settings: 48 h
Method in brief: as §1

[15] = system: primary DLBCL patient cells (S049); settings: 48 h
Method in brief: as §1

[16] = system: primary MCL patient cells (S063); settings: 48 h
Method in brief: as §1

[17] = system: primary AML patient cells (S021); settings: 48 h
Method in brief: as §1

[18] = system: primary AML patient cells (S060); settings: 48 h
Method in brief: as §1

CC(C)c1cc(-c2n[nH]c(=O)n2-c2ccc3c(ccn3C)c2)c(O)cc1O [Ganetespib]
viability ([1]; 0.0032 µM): 1.02
viability ([1]; 0.016 µM): 1.12
viability ([1]; 0.08 µM): 1.09
viability ([1]; 0.4 µM): 1.04
viability ([1]; 2 µM): 1.02
viability ([2]; 0.0032 µM): 1.03
viability ([2]; 0.016 µM): 0.967
viability ([2]; 0.08 µM): 0.569
viability ([2]; 0.4 µM): 0.552
viability ([2]; 2 µM): 0.514
viability ([3]; 0.0032 µM): 1.13
viability ([3]; 0.016 µM): 0.778
viability ([3]; 0.08 µM): 0.624
viability ([3]; 0.4 µM): 0.684
viability ([3]; 2 µM): 0.644
viability ([4]; 0.0032 µM): 1.01
viability ([4]; 0.016 µM): 1.01
viability ([4]; 0.08 µM): 0.853
viability ([4]; 0.4 µM): 0.881
viability ([4]; 2 µM): 0.848
viability ([5]; 0.0032 µM): 0.98
viability ([5]; 0.016 µM): 0.846
viability ([5]; 0.08 µM): 0.533
viability ([5]; 0.4 µM): 0.406
viability ([5]; 2 µM): 0.404
viability ([6]; 0.0032 µM): 1.12
viability ([6]; 0.016 µM): 0.904
viability ([6]; 0.08 µM): 0.467
viability ([6]; 0.4 µM): 0.407
viability ([6]; 2 µM): 0.396
viability ([7]; 0.0032 µM): 1.01
viability ([7]; 0.016 µM): 0.978
viability ([7]; 0.08 µM): 0.943
viability ([7]; 0.4 µM): 1.14
viability ([7]; 2 µM): 1.12
viability ([8]; 0.0032 µM): 0.937
viability ([8]; 0.016 µM): 1
viability ([8]; 0.08 µM): 0.939
viability ([8]; 0.4 µM): 0.988
viability ([8]; 2 µM): 0.961
viability [9]: 0.0928
viability ([10]; 0.0032 µM): 0.846
viability ([10]; 0.016 µM): 0.154
viability ([10]; 0.08 µM): 0.134
viability ([10]; 0.4 µM): 0.198
viability ([10]; 2 µM): 0.186
viability ([11]; 0.0032 µM): 0.981
viability ([11]; 0.016 µM): 0.674
viability ([11]; 0.08 µM): 0.0862
viability ([11]; 0.4 µM): 0.0773
viability ([11]; 2 µM): 0.0742
viability ([12]; 0.0032 µM): 0.823
viability ([12]; 0.016 µM): 0.425
viability ([12]; 0.08 µM): 0.274
viability ([12]; 0.4 µM): 0.259
viability ([12]; 2 µM): 0.267
viability ([13]; 0.0032 µM): 0.976
viability ([13]; 0.016 µM): 0.928
viability ([13]; 0.08 µM): 0.403
viability ([13]; 0.4 µM): 0.368
viability ([13]; 2 µM): 0.337
viability ([14]; 0.0032 µM): 0.953
viability ([14]; 0.016 µM): 0.743
viability ([14]; 0.08 µM): 0.542
viability ([14]; 0.4 µM): 0.56
viability ([14]; 2 µM): 0.567
viability ([15]; 0.0032 µM): 0.955
viability ([15]; 0.016 µM): 0.989
viability ([15]; 0.08 µM): 0.888
viability ([15]; 0.4 µM): 0.54
viability ([15]; 2 µM): 0.537
viability ([16]; 0.0032 µM): 1
viability ([16]; 0.016 µM): 1.05
viability ([16]; 0.08 µM): 0.136
viability ([16]; 0.4 µM): 0.0898
viability ([16]; 2 µM): 0.0823
viability ([17]; 0.0032 µM): 0.917
viability ([17]; 0.016 µM): 0.742
viability ([17]; 0.08 µM): 0.53
viability ([17]; 0.4 µM): 0.637
viability ([17]; 2 µM): 0.617
viability ([18]; 0.0032 µM): 0.97
viability ([18]; 0.016 µM): 1.05
viability ([18]; 0.08 µM): 0.154
viability ([18]; 0.4 µM): 0.118
viability ([18]; 2 µM): 0.107
